Measurements reported in US12606813B2, “Compositions and methods for enzyme immobilization” (priority 2017, dated 2026).

Tests used:
Format in all cases: biochemical
[1] = tested on: AIDA-lipase (pAIDA-lipase): Bacillus sp. 42 thermostable organic solvent tolerant lipase (encoding nucleic acid SEQ ID NO: 15) fused to AIDA-1 autotransporter …; test: Lipase activity, continuous spectrophotometric rate determination at 400 nm, Michaelis-Menten fit, AIDA-lipase on minicell surface; conditions: 4-nitrophenyl-butyrate 0-5 mM, 37° C., pH 7.2; Cells/Well: 99,946,667; best-fit value
Procedure: (§1) Kinetic analysis of the reaction was analyzed by continuous spectrophotometric rate determination at 400 nm.
This construction was conducted with primarily designed pAIDA-1 plasmid (from Addgene, Cambridge, MA) in which the lipase-encoding gene was ligated into the passenger domain within the AIDA-I autotransporter using KpnI and SacI sites as illustrated in FIG. 4A. The tags existed on the pAIDA-1 plasmid prior were used for further analysis on lipase expression. After the ligation is completed, the 6× His tag and HRV3C site are located at N-terminus of the lipase-encoding gene and the Myc tag and TEV site are placed at C-terminus of the lipase-encoding gene. The 6× His tag, which is the 5′ end of the surface-expressed fusion lipase protein was used for Cobalt immobilized metal affinity chromatography (IMAC) and for immunofluorescent staining with THE His Tag antibody [FITC] from Genscript. […]
In order to further confirm presence of the functional lipase-fusion protein in both the elution fraction from the protein purification and the surface of the cell, a lipase activity assay was designed using the lipase substrate, 4-nitrophenyl-butyrate. […] The pathlength, 0.625 cm, was calculated from the known volume of the well (200 uL) and the well's surface area (0.32 cm^2). […]

[2] = tested on: Brk-lipase: Bacillus sp. 42 thermostable organic solvent tolerant lipase (encoding nucleic acid SEQ ID NO: 15) fused to BrkA autotransporter, on the surface of …; test: Lipase activity, continuous spectrophotometric rate determination at 400 nm, Michaelis-Menten fit, Brk-lipase on minicell surface; conditions: 4-nitrophenyl-butyrate 0-5 mM, 37° C., pH 7.2; Cells/Well: 17,706,667; best-fit value
Procedure: as §1
For a bacterial surface display system named as BrkAutoDisplay based on the structure of autotransporter BrkA (Bordetella serum-resistance killing protein A) was used to host an exogenous gene encoding lipase. To construct a recombinant Brk-lipase expression vector, Brk autotransporter gene was first cloned into the pGEX-6P-1 plasmid. Using BamHI and EcoRI restriction sites, the lipase-encoding gene was ligated with the Brk autotransporter gene, as illustrated in FIG. 6A. […]
(§2) In order to further confirm presence of the functional lipase-fusion protein in both the elution fraction from the protein purification and the surface of the cell, a lipase activity assay was designed using the lipase substrate, 4-nitrophenyl-butyrate. […] The pathlength, 0.625 cm, was calculated from the known volume of the well (200 uL) and the well's surface area (0.32 cm^2).
(§3) For the enzymatic assay, required are the reaction buffer (100 mM Sodium Phosphate Buffer solution pH 7.2, 0.5% (v/v) Triton-X 100, 150 mM Sodium Chloride), the enzyme/cell solution in 1×PBS, and the substrate solution which is varying concentrations of 4-nitrophenyl-butyrate in acetonitrile. […] Vmax and Km were calculated using GraphPad Prism Michaelis-Menten fitting parameters. […]

[3] = tested on: InaK-lipase: Bacillus sp. 42 thermostable organic solvent tolerant lipase (encoding nucleic acid SEQ ID NO: 15) fused to Ice Nucleation Protein InaK, on the …; test: Lipase activity, continuous spectrophotometric rate determination at 400 nm, Michaelis-Menten fit, InaK-lipase on minicell surface; conditions: 4-nitrophenyl-butyrate 0-5 mM, 37° C., pH 7.2; Cells/Well: 107,840,000; best-fit value
Procedure: as §1
Another bacterial surface display protein, Ice Nucleation Protein K (InaK) was used for expressing recombinant lipase proteins fused to anchoring linker protein (motif) that direct the incorporated fusion protein on the surface of minicells. Like BrkAutoDisplay, polynucleotide encoding Inak transmembrane protein and the lipase-encoding gene were inserted into the pGEX-6P-1 vector for producing the bacterial surface display lipase protein as illustrated in FIG. 7A. […]
as §2
as §3, with “Activity was determined from a Michaelis-Menten fit of the” for “Vmax and Km were”, “rates resulting from varying the substrate concentration according to the Table 10.” for “using GraphPad Prism Michaelis-Menten fitting parameters.”

With `CCCC(=O)Oc1ccc([N+](=O)[O-])cc1` [4-nitrophenyl-butyrate] the Km [1] was 180 µM, the Vmax [1] was 0.08174 µM/s and the Km [2] was 221 µM. For the same compound, the Vmax [2] was 0.04453 µM/s, the Km [3] was 302 µM and the Vmax [3] was 0.06354 µM/s.
